Experimental data reported in ChEMBL document CHEMBL5537146, “Novel orally bioavailable piperidine derivatives as extracellular arginase inhibitors developed by a ring expansion” (Eur J Med Chem, 2024).

How the values were obtained:
Arginase-1 [1] = target: T1, Arginase-1 (Homo sapiens, UniProt P05089); experiment: Inhibition of human recombinant ARG1 expressed in Escherichia coli using L-arginine hydrochloride as substrate assessed as inhibition of urea production incubated for 20 mins by colorimetric analysis
T1 sequence (P05089 whole entry): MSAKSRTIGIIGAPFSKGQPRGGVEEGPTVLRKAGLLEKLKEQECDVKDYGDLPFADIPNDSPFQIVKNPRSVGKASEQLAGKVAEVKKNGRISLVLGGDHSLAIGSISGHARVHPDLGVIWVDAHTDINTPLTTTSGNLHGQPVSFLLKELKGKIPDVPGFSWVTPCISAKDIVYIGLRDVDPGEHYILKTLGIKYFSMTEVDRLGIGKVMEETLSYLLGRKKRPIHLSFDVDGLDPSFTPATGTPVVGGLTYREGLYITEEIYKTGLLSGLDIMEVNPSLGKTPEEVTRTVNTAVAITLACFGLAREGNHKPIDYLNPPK

[2] = Inhibition of mouse intracellular ARG in M2 polarized C57BL/6 mouse BMDM cells incubated for 24 hrs by absorbance based analysis; assay type: cell-based; details: C57BL/6, BMDM
[3] = Volume of distribution at steady state in Sprague-Dawley rat at 3 mg/kg, iv measured over 24 hrs by LC-MS/MS analysis; assay type: ADME, organism-based; details: in vivo, read-out: Vdss
[4] = Clearance in Sprague-Dawley rat at 3 mg/kg, iv measured over 24 hrs by LC-MS/MS analysis; assay type: ADME, organism-based; details: in vivo
[5] = Terminal elimination half-life in Sprague-Dawley rat at 3 mg/kg, iv measured over 24 hrs by LC-MS/MS analysis; assay type: ADME, organism-based; details: in vivo, read-out: beta t1/2 (converted)
[6] = Tmax in Sprague-Dawley rat at 10 mg/kg, po measured over 24 hrs by LC-MS/MS analysis; assay type: ADME, organism-based; details: in vivo
[7] = Drug metabolism in Sprague-Dawley rat plasma assessed as increase in arginine level by measuring fold change at 10 mg/kg, po measured for 24 hrs by LC-MS/MS analysis; assay type: ADME, organism-based; details: in vivo
[8] = Oral bioavailability in Sprague-Dawley rat at 10 mg/kg measured over 24 hrs by LC-MS/MS analysis; assay type: ADME, organism-based; details: in vivo
[9] = Drug metabolism in Balb/c mouse plasma assessed as increase in arginine level by measuring fold change at 100 mg/kg, po measured for 24 hrs […] by LC-MS/MS analysis; assay type: ADME, organism-based; details: in vivo
[10] = Drug metabolism in Balb/c mouse plasma assessed as (3R,5S)-3-amino-5-(2-boronoethyl)piperidine-3-carboxylic acid metabolite formation at 100 mg/kg, po measured for 24 hrs by LC-MS/MS analysis; assay type: ADME, organism-based; details: in vivo
[11] = target: Voltage-gated inwardly rectifying potassium channel KCNH2 (Homo sapiens, UniProt Q12809); experiment: Inhibition of hERG; assay type: toxicity
[12] = Toxicity in Sprague-Dawley rat assessed as mortality upto 1 g/Kg, po measured after 7 days; assay type: organism-based; details: in vivo, 1000 mg/kg, 168 h, time 7 day
[13] = Toxicity in Sprague-Dawley rat assessed as change in body weight measured after 7 days; details: in vivo, 168 h, time 7 day
[14] = Permeability in human Caco-2 cells; assay type: ADME, cell-based
[15] = Genotoxicity in Salmonella typhimurium TA98 in presence of S9 fraction by Ames test; assay type: toxicity; details: salmonella enterica subsp. enterica serovar typhimurium
[16] = Oral bioavailability in Balb/c mouse at 100 mg/kg measured for 24 hrs by LC-MS/MS analysis; assay type: ADME, organism-based; details: in vivo
[17] = AUC (0 to infinity) in Sprague-Dawley rat at 10 mg/kg, po measured for 24 hrs by LC-MS/MS analysis; assay type: ADME, organism-based; details: in vivo
Arginase-1 [18] = target: T1, Arginase-1; experiment: Inhibition of extracellular arginase (unknown origin)

Chain of Voltage-gated inwardly rectifying potassium channel KCNH2 (Q12809 whole entry): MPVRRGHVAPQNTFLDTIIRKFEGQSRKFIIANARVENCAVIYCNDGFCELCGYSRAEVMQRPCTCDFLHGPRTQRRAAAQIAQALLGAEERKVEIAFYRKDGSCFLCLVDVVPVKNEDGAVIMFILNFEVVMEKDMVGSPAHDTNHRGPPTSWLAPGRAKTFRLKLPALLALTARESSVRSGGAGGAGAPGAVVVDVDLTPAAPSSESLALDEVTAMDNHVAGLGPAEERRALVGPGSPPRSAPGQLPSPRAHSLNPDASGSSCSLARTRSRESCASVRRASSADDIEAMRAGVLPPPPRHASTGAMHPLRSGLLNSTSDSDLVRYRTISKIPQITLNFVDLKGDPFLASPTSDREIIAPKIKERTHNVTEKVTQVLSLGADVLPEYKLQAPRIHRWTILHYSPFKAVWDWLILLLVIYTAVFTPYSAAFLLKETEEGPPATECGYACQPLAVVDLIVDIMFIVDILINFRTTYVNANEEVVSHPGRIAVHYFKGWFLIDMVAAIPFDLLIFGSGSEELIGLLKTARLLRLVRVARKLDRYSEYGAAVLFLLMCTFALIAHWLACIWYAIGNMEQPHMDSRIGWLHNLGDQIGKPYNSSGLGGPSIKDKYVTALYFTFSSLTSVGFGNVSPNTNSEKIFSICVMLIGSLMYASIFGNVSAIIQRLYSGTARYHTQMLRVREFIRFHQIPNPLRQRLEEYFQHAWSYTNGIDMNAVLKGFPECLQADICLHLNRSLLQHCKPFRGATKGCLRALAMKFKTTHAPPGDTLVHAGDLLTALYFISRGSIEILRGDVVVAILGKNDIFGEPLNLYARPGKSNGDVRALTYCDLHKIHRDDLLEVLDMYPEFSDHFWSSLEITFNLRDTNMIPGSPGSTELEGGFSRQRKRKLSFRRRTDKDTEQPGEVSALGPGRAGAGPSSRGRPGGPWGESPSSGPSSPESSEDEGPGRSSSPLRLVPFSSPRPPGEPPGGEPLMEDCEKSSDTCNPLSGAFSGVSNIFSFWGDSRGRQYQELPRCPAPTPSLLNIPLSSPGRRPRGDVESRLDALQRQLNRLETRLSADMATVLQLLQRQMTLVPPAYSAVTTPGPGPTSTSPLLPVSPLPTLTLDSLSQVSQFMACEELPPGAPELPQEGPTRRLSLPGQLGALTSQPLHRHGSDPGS

| Structure (SMILES) | IC50 (Arginase-1 [1]) | IC50 [2] | also measured |
| --- | --- | --- | --- |
| NCCCC[C@H](N)C(=O)N1C[C@@H](CCB(O)O)C[C@](N)(C(=O)O)C1 | 250 nM | > 300000 nM |  |
| NCCC[C@H](N)C(=O)N1C[C@@H](CCB(O)O)C[C@](N)(C(=O)O)C1 | 310 nM | > 300000 nM |  |
| C[C@H](N)C(=O)N1C[C@@H](CCB(O)O)C[C@](N)(C(=O)O)[C@@H]1C | 250 nM |  | Vd [3]: 0.69 L/kg; clearance [4]: 5.87 mL/min/kg; half-life [5]: 2.66 h; Tmax [6]: 1 h; fold change (FC) [7]: 2; bioavailability [8]: 65.6% |
| N[C@@H](CCC(=O)O)C(=O)N1C[C@@H](CCB(O)O)C[C@](N)(C(=O)O)C1 | 680 nM | > 300000 nM |  |
| N=C(N)NCCC[C@H](N)C(=O)N1C[C@@H](CCB(O)O)C[C@](N)(C(=O)O)C1 | 160 nM | > 300000 nM | Vd [3]: 0.69 L/kg; fold change (FC) [9]: 3; clearance [4]: 5.87 mL/min/kg; half-life [5]: 2.66 h; Tmax [6]: 1 h; Drug metabolism [10]: Metabolite_Detected; fold change (FC) [7]: 2; inhibition (INH) [11]: Not Active; bioavailability [8]: 18.8%; Activity [12]: Non-Toxic; Activity [13]: Non-Toxic; permeability [14]: Impermeable; Activity [15]: Toxic |
| CC[C@H](C)[C@H](N)C(=O)N1C[C@@H](CCB(O)O)C[C@](N)(C(=O)O)C1 | 760 nM | > 300000 nM |  |
| N[C@@]1(C(=O)O)CNC[C@@H](CCB(O)O)C1 | 830 nM |  |  |
| NCC(=O)N1C[C@@H](CCB(O)O)C[C@](N)(C(=O)O)C1 | 250 nM | > 300000 nM | Vd [3]: 0.69 L/kg; clearance [4]: 5.87 mL/min/kg; half-life [5]: 2.66 h; Tmax [6]: 1 h; fold change (FC) [7]: 2; AUC(0-inf) [17]: 2680 ng·h/mL; bioavailability [8]: 18.8% |
| NC(=O)NCCC[C@H](N)C(=O)N1C[C@@H](CCB(O)O)C[C@](N)(C(=O)O)C1 | 360 nM | > 300000 nM |  |
| CC(C)[C@H](N)C(=O)N1C[C@@H](CCB(O)O)C[C@](N)(C(=O)O)C1 | 360 nM | > 300000 nM |  |
| N[C@@]1(C(=O)O)CCC[C@@H](CCB(O)O)C1 | 1200 nM |  |  |
| N[C@]1(C(=O)O)C[C@H](CCB(O)O)CN(C(=O)[C@@H]2CCCN2)C1 | 350 nM | > 300000 nM |  |
| CSCC[C@H](N)C(=O)N1C[C@@H](CCB(O)O)C[C@](N)(C(=O)O)C1 | 400 nM | > 300000 nM |  |
| CNCC(=O)N1C[C@@H](CCB(O)O)C[C@](N)(C(=O)O)C1 | 420 nM | > 300000 nM |  |
| C[C@H](N)C(=O)N1C[C@H](CCCB(O)O)[C@](N)(C(=O)O)C1 |  | 56200 nM |  |
| C[C@@H]1N(C(=O)[C@@H](N)CCCNC(=N)N)C[C@@H](CCB(O)O)C[C@]1(N)C(=O)O | 400 nM |  |  |
| NC(=O)CC[C@H](N)C(=O)N1C[C@@H](CCB(O)O)C[C@](N)(C(=O)O)C1 | 420 nM | > 300000 nM |  |
| COC(=O)[C@@]1(N)C[C@H](CCB(O)O)CN(C(=O)[C@H](C)N)C1 | > 10000 nM |  |  |
| C[C@@H](O)[C@H](N)C(=O)N1C[C@@H](CCB(O)O)C[C@](N)(C(=O)O)C1 | 380 nM | > 300000 nM |  |
| CN(C)C[C@@H]1CC[C@@H](CCB(O)O)C[C@]1(N)C(=O)O | 20 nM | 1100 nM | IC50 (Arginase-1 [18]): 20 nM |

Continued, in another order:

| IC50 (Arginase-1 [1]) | IC50 [2] | Structure (SMILES) | also measured |
| --- | --- | --- | --- |
| 280 nM | > 300000 nM | N[C@@H](Cc1ccc(O)cc1)C(=O)N1C[C@@H](CCB(O)O)C[C@](N)(C(=O)O)C1 |  |
| 280 nM | > 300000 nM | N[C@@H](Cc1c[nH]c2ccccc12)C(=O)N1C[C@@H](CCB(O)O)C[C@](N)(C(=O)O)C1 |  |
| 210 nM | > 300000 nM | N[C@@H](Cc1c[nH]cn1)C(=O)N1C[C@@H](CCB(O)O)C[C@](N)(C(=O)O)C1 |  |
| 650 nM | > 300000 nM | N[C@@H](CC(=O)O)C(=O)N1C[C@@H](CCB(O)O)C[C@](N)(C(=O)O)C1 |  |
| 610 nM | > 300000 nM | CC(C)C[C@H](N)C(=O)N1C[C@@H](CCB(O)O)C[C@](N)(C(=O)O)C1 |  |
| 360 nM | > 300000 nM | NC(=O)C[C@H](N)C(=O)N1C[C@@H](CCB(O)O)C[C@](N)(C(=O)O)C1 |  |
| 270 nM | > 300000 nM | C[C@H](N)C(=O)N1C[C@@H](CCB(O)O)C[C@](N)(C(=O)O)C1 | Vd [3]: 0.69 L/kg; fold change (FC) [9]: 3; clearance [4]: 5.87 mL/min/kg; half-life [5]: 2.66 h; bioavailability [16]: 58%; Tmax [6]: 1 h; Drug metabolism [10]: Metabolite_Detected; fold change (FC) [7]: 2; bioavailability [8]: 18.8% |
| 340 nM | > 300000 nM | CCC[C@H](N)C(=O)N1C[C@@H](CCB(O)O)C[C@](N)(C(=O)O)C1 |  |
| 3220 nM | > 300000 nM | C[C@@H](N)C(=O)N1C[C@@H](CCB(O)O)C[C@](N)(C(=O)O)C1 |  |
| > 10000 nM |  | C[C@H](N)C(=O)N1C[C@@H](CCB(O)O)C[C@@](N)(C(=O)O)C1 |  |
| 760 nM | > 300000 nM | N[C@@H](CS)C(=O)N1C[C@@H](CCB(O)O)C[C@](N)(C(=O)O)C1 |  |
| 280 nM | > 300000 nM | N[C@@H](CO)C(=O)N1C[C@@H](CCB(O)O)C[C@](N)(C(=O)O)C1 |  |
| > 10000 nM |  | C[C@H](N)C(=O)N1C[C@H](CCB(O)O)C[C@](N)(C(=O)O)C1 |  |
| 740 nM | > 300000 nM | Cn1cc(C[C@@H](N)C(=O)N2C[C@@H](CCB(O)O)C[C@](N)(C(=O)O)C2)c2ccccc21 |  |
| > 10000 nM |  | C[C@H](N)C(=O)N1C[C@H](CCB(O)O)C[C@@](N)(C(=O)O)C1 |  |
| 240 nM | > 300000 nM | N[C@@H](Cc1ccccc1)C(=O)N1C[C@@H](CCB(O)O)C[C@](N)(C(=O)O)C1 | Vd [3]: 0.69 L/kg; clearance [4]: 5.87 mL/min/kg; half-life [5]: 2.66 h; Tmax [6]: 1 h; fold change (FC) [7]: 2; bioavailability [8]: 18.8% |
